Data on two molecules can be found in patent US20020107250A1, “Rapid-onset formulation of a selective cyclooxygenase-2 inhibitor” (priority 2000, published 2002).

The data set is described as follows: Solubility of celecoxib and valdecoxib in various solvent liquids. Type of data set: physicochemical. Here is the method:
Aliquots of a solvent liquid were then added dropwise in approximately 100 mg increments to the solid sample. The resulting mixture was vortexed and/or sonicated between aliquot additions. […] Solubility values preceded by the<symbol denote that, at the particular concentration shown, the mixture was still cloudy, i.e., not all of the drug was fully in dissolved form.

Molecules are shown by their SMILES.

Consider `Cc1ccc(-c2cc(C(F)(F)F)nn2-c2ccc(S(N)(=O)=O)cc2)cc1` [celecoxib, 4-[5-(4-methylphenyl)-3-(trifluoromethyl)-1H-pyrazol-1-yl]benzenesulfonamide], for which the “Solubility in a DGME/water mixture compared with a PEG-400/water mixture” value (same ratio of mixture ingredients) was “significantly higher”. Besides, the Solubility (solvent liquid: Capmul MCM (caprylic/capric mono- and diglycerides)) was 19 to 21 mg/g; the Solubility (solvent liquid: Labrasol/DGME/propylene glycol laurate 40:40:20 w/w) lay in the range of 288 to 297 mg/g; the Solubility (solvent liquid: Labrasol/DGME/propylene glycol laurate 45:45:10 w/w) lay within 313 to 325 mg/g; the Solubility (solvent liquid: Miglyol 812 (caprylic/capric triglycerides)) fell in the range of 6 to 12 mg/g; the Solubility (solvent liquid: Tagat TO (polyoxyethylene glyceryl trioleate)) was in the range of 24 to 40 mg/g; the Solubility (solvent liquid: Tagat TO/Capmul MCM 1:1 w/w) is 34 to 52 mg/g.

Turning to `Cc1onc(-c2ccccc2)c1-c1ccc(S(N)(=O)=O)cc1` [valdecoxib, 4-[5-methyl-3-phenylisoxazol-4-yl]benzenesulfonamide], the “Advantage in solubility for DGME over propylene glycol” value (DGME versus propylene glycol) is given as “approximately tenfold advantage in solubility”. The Solubility fell in the range of 50 to 85 mg/g (solvent liquid: polyethylene glycol 400) and 10 to 20 mg/g (solvent liquid: propylene glycol).
